How the values were obtained:
OGA = biological target: T1, OGA (Homo sapiens, UniProt O60502); assay: OGA cellular assay (ICC detection of O-GlcNAcylated proteins in HEK293 cells inducible for P301L mutant human Tau); format: cell-based; settings: 6 hours incubation; for Emax: HEK293, HEK293 cells inducible for P301L mutant human Tau; for EC50: read-out: Cellular hOGA, pEC50 (converted)
T1 construct: HEK293 cells inducible for P301L mutant human Tau (isoform 2N4R) were established at Janssen; endogenous in cells; host or cells: HEK293 cells inducible for P301L mutant human Tau (2N4R)
T1 sequence (O60502 1-916): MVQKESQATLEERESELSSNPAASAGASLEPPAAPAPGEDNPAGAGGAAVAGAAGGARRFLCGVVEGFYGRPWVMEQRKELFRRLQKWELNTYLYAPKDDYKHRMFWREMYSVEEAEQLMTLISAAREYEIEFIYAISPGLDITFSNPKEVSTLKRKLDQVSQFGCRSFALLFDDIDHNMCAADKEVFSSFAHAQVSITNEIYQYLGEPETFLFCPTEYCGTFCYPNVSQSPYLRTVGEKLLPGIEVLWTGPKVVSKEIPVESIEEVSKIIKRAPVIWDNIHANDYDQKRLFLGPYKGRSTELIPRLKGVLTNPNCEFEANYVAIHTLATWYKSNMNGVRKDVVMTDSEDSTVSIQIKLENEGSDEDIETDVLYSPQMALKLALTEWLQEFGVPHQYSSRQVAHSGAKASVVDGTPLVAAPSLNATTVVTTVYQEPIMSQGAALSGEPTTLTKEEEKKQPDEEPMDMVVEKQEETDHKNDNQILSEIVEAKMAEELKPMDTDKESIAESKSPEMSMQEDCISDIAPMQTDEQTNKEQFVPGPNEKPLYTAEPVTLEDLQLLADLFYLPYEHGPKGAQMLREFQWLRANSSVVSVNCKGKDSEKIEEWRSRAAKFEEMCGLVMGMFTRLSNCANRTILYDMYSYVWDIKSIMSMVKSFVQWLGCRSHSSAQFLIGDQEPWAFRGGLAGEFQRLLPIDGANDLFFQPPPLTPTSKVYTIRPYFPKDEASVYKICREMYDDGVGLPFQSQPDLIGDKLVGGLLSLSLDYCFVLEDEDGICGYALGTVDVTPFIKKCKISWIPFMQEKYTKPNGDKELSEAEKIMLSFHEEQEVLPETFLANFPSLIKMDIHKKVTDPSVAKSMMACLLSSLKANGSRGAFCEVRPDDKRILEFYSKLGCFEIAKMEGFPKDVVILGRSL
Procedure: HEK293 cells inducible for P301L mutant human Tau (isoform 2N4R) were established at Janssen. Thiamet-G was used for both plate validation (high control) and as reference compound (reference EC50 assay validation). OGA inhibition is evaluated through the immunocytochemical (ICC) detection of O-GlcNAcylated proteins by the use of a monoclonal antibody (CTD110.6; Cell Signaling, #9875) detecting 0-GlcNAcylated residues as previously described (Dorfmueller et al. 2010 Chemistry & biology, 17:1250). Inhibition of OGA will result in an increase of 0-GlcNAcylated protein levels resulting in an increased signal in the experiment. Cell nuclei are stained with Hoechst to give a cell culture quality control and a rough estimate of immediate compounds toxicity, if any. ICC pictures are imaged with a Perkin Elmer Opera Phenix plate microscope and quantified with the provided software Perkin Elmer Harmony 4.1.
Cells were propagated in DMEM high Glucose (Sigma, #D5796) following standard procedures. 2 days before the cell assay cells are split, counted and seeded in Poly-D-Lysine (PDL) coated 96-wells (Greiner, #655946) plate at a cell density of 12,000 cells per cm^2 (4,000 cells per well) in 100p of Assay Medium (Low Glucose medium is used to reduce basal levels of GlcNAcylation) (Park et al. 2014 The Journal of biological chemistry 289:13519). At the day of compound test medium from assay plates was removed and replenished with 90 μl of fresh Assay Medium. 10 μl of compounds at a 10 fold final concentration were added to the wells. Plates were centrifuged shortly before incubation in the cell incubator for 6 hours. DMSO concentration was set to 0.2%. Medium is discarded by applying vacuum. For staining of cells medium was removed and cells washed once with 100 μl D-PBS (Sigma, #D8537). From next step onwards unless other stated assay volume was always 50p and incubation was performed without agitation and at room temperature. Cells were fixed in 50 μl of a 4% paraformaldehyde (PFA, Alpha aesar, #043368) PBS solution for 15 minutes at room temperature. […] Before analysis samples were washed 2 times manually for 5 minutes in ICC base buffer.
Imaging is performed using Perkin Elmer Phenix Opera using a water 20× objective and recording 9 fields per well. Intensity readout at 488 nm is used as a measure of O-GlcNAcylation level of total proteins in wells. To assess potential toxicity of compounds nuclei were counted using the Hoechst staining. IC50-values are calculated using parametric non-linear regression model fitting. As a maximum inhibition Thiamet G at a 200 uM concentration is present on each plate. In addition, a concentration response of Thiamet G is calculated on each plate.

[1] = biological target: T2, recombinant human Meningioma Expressed Antigen 5 (MGEA5), also referred to as O-GlcNAcase (OGA) (Homo sapiens, UniProt O60502); assay: OGA biochemical assay (inhibition of FM-GlcNAc hydrolysis, fluorescence); settings: for Emax: read-out: Enzymatic Emax (%); for IC50: read-out: Enzymatic hOGA, pIC50 (converted)
T2 construct: Full length OGA enzyme was purchased at OriGene (cat #TP322411); purchased OriGene TP322411
T2 sequence (O60502 1-916): T1 sequence (O60502 1-916)
Description: The assay is based on the inhibition of the hydrolysis of fluorescein mono-B-D-N-Acetyl-Glucosamine (FM-GcNAc) (Mariappa et al. 2015, Biochem J470:255) by the recombinant human Meningioma Expressed Antigen 5 (MGEA5), also referred to as O-GlcNAcase (OGA). The hydrolysis FM-GlcNAc (Marker Gene technologies, cat #M1485) results in the formation of B-D-N-glucosamineacetate and fluorescein. The fluorescence of the latter can be measured at excitation wavelength 485 nm and emission wavelength 538 nm. An increase in enzyme activity results in anincrease in fluorescence signal. Full length OGA enzyme was purchased at OriGene (cat #TP322411). The enzyme was stored in 25 mM Tris.HCl, pH 7.3, 100 mM glycine, 10% glycerol at −20° C. Thiamet G and GlcNAcStatin were tested as reference compounds (Yuzwa et al. 2008 Nature Chemical Biology 4:483; Yuzwa et al. 2012 Nature Chemical Biology 8:393). The assay was performed in 200 mM Citrate/phosphate buffer supplemented with 0.005% Tween-20. 35.6 g Na2HPO4 2H2O (Sigma, #C0759) were dissolved in 1 L water to obtain a 200 mM solution. 19.2 g citric acid (Merck, #1.06580) was dissolved in 1 L water to obtain a 100 mM solution. pH of the sodiumphosphate solution was adjusted with the citric acid solution to 7.2. The buffer to stop the reaction consists of a 500 mM Carbonate buffer, pH 11.0. 734 mg FM-GlcNAc were dissolved in 5.48 mL DMSO to obtain a 250 mM solution and was stored at −20° C. OGA was used at a 2 nM concentration and FM-GcNAc at a 100 uM final concentration. Dilutions were prepared in assay buffer.
50 nl of a compound dissolved in DMSO was dispensed on Black Proxiplate™ 384 Plus Assay plates (Perkin Elmer, #6008269) and 3 μl fl-OGA enzyme mix added subsequently. Plates were pre-incubated for 60 min at room temperature and then 2 μl FM-GlcNAc substrate mix added.
Plates were briefly centrifuged for 1 min at 1000 rpm and incubate at room temperature for 6 h. To stop the reaction 5 μl STOP buffer were added and plates centrifuge again 1 min at 1000 rpm. Fluorescence was quantified in the Thermo Scientific Fluoroskan Ascent or the PerkinElmer EnVision with excitation wavelength 485 nm and emission wavelength 538 nm.
For analysis a best-fit curve is fitted by a minimum sum of squares method. From this an IC50 value and Hill coefficient was obtained. High control (no inhibitor) and low control (saturating concentrations of standard inhibitor) were used to define the minimum and maximum values.

[2] = HEK293 cells inducible for P301L mutant human Tau

Row | Structure (SMILES) | Emax (OGA; maximum = Thiamet G 200 uM) [%] | EC50 (OGA; [2]) [nM] | Emax [1] [%] | IC50 [1] [nM] | Cellular Emax (%) (OGA; HEK293 cells inducible for P301L mutant human Tau, maximum = Thiamet G 200 uM) | Enzymatic Emax (%) [1] [%]
1 | Cc1cc(OC2CCN(C(C)c3ccc4c(n3)OCC4)CC2)cc(C)n1 (stereo not drawn) [Compound 60] | 84 | 117 | 95 | 39.8 | – | –
2 | Cc1ccc(OC2CCN(C(C)c3nc4c(cc3F)OCCO4)CC2)nc1 (stereo not drawn) [Compound 165] | 72 | 316 | 94 | 15.8 | – | –
3 | Cc1ccnc(OC2CCN(C(C)c3nc4c(cc3F)OCCO4)CC2)c1 (stereo not drawn) [Compound 161] | 83 | 158 | 97 | 20 | – | –
4 | Cc1cc(OC2CCN(C(C)c3cnc4c(c3)OCCO4)CC2)cc(C)n1 (stereo not drawn) [Compound 5] | 22 | > 1000 | 93 | 1260 | – | –
5 | Cc1cc(OC2CCN([C@H](C)c3nc4c(cc3F)OCCO4)CC2)nc(C)n1 (single isomer, unassigned) [Compound 55] | 14 | > 1000 | 97 | 200 | – | –
6 | COc1cc(COC2CCN(C(C)c3nc4c(cc3F)OCCO4)CC2)cc(C)n1 (stereo not drawn) [Compound 134] | 81 | 63.1 | 94 | 10 | – | –
7 | Cc1ccc(OC2CCN(C(C)c3ccc4c(n3)OCCO4)CC2)cn1 (stereo not drawn) [Compound 41] | 74 | 501 | 99 | 50.1 | – | –
8 | Cc1nccnc1OC1CCN(C(C)c2nc3c(cc2F)OCCO3)CC1 (stereo not drawn) [Compound 111] | 77 | 200 | 98 | 50.1 | – | –
9 | Cc1cc(OC2CCN([C@H](C)c3nc4nc(C)sc4cc3F)CC2)cc(C)n1 (single isomer, unassigned) [Compound 82] | 18 | > 1000 | 97 | 631 | – | –
10 | Cc1cc(OC2CCN([C@@H](C)c3nc4c(cc3F)CCO4)CC2)cc(C)n1 (single isomer, unassigned) [Compound 145] | 8 | > 1000 | 86 | 1580 | – | –
11 | COc1ccc(OC2CCN(C(C)c3ccc4c(n3)OCCO4)CC2)nc1 (stereo not drawn) [Compound 99] | 34 | > 1000 | 98 | 158 | – | –
12 | COc1nccnc1OC1CCN(C(C)c2ccc3c(n2)OCCO3)CC1 (stereo not drawn) [Compound 108] | 15 | > 1000 | 101 | 631 | – | –
13 | COc1cc(OC2CCN(C(C)c3nc4c(cc3F)OCCO4)CC2)ncc1C#N (stereo not drawn) [Compound 153] | 67 | 200 | 95 | 31.6 | – | –
14 | COc1cc(OC2CCN(C(C)c3ccc4sc(C)nc4n3)CC2)cc(C)n1 (single isomer, unassigned) [Compound 24] | – | 100 | – | 20 | 72 | 98
15 | CC(c1ccc2c(n1)OCCO2)N1CCC(Oc2cc[nH]c(=O)c2)CC1 (stereo not drawn) [Compound 93] | 34 | > 1000 | 98 | 251 | – | –
16 | Cc1cc(OC2CCN(C(C)c3nc4c(cc3F)OCCO4)CC2)cc(C)n1 (stereo not drawn) [Compound 4] | 76 | 39.8 | 99 | 12.6 | – | –
17 | Cc1cc(OC2CCN(C(C)c3ccc4c(n3)OCCO4)CC2)cc(C(C)C)n1 (stereo not drawn) [Compound 130] | 59 | 245 | 100 | 39.8 | – | –
18 | CC(c1ccc2c(n1)OCCO2)N1CCC(Oc2ccc(C(F)(F)F)nc2)CC1 (stereo not drawn) [Compound 68] | 57 | 794 | 94 | 79.4 | – | –
19 | Cc1ccnc(OC2CCN(C(C)c3ccc4c(n3)OCCO4)CC2)c1 (stereo not drawn) [Compound 44] | 57 | 501 | 98 | 200 | – | –
20 | Cc1cc(OC2CCN(C(C)c3nc4c(cc3F)OCCO4)CC2)nc(C)n1 (stereo not drawn) [Compound 12] | 74 | 79.4 | 99 | 15.8 | – | –
21 | Cc1cc(OC2CCN(C(C)c3nc4c(cc3F)CCO4)CC2)cc(C)n1 (stereo not drawn) [Compound 6] | 87 | 17.4 | 101 | 3.98 | – | –
22 | Cc1cc(OC2CCN(C(C)c3nc4c(cc3F)OCCO4)CC2)c(Cl)c(C)n1 (stereo not drawn) [Compound 65] | 101 | 63.1 | 99 | 12.6 | – | –
23 | COc1cc(OC2CCN(C(C)c3cnc4c(c3)OCCO4)CC2)cc(C)n1 (stereo not drawn) [Compound 37] | 23 | > 1000 | 98 | 398 | – | –
24 | Cc1cc(OC2CCN(C(C)c3nc4nc(C)sc4cc3F)CC2)nc(C)n1 (stereo not drawn) [Compound 33] | 65 | 251 | 100 | 15.8 | – | –
